From ChEMBL document CHEMBL1151552, “Inhibitory activities of herpes simplex viruses type 1 and 2 and human cytomegalovirus by stereoisomers of 2-deoxy-3-oxa-5(E)-(2-bromovinyl)uridines and their 4-thio analogues” (Bioorg Med Chem Lett, 1994)
Values after ≈ are worked out from the molar mass of the structure shown.

Legend:
F2002 cell line = assay: Inhibitory activity against human cytomegalo virus (WFI strain) in a plaque reduction assay in flow 2002 human fibroblast cells; format: functional, cell-based
[1] = Cytotoxicity in Flow 2002 cell line; format: cell-based; conditions: human, Flow 2002 cells
Vero [2] = assay: Inhibitory activity against Herpes Simplex virus type 1 (186 strain) in a Plaque reduction Assay in vero cells; format: functional, cell-based; conditions: Chlorocebus sabaeus
Vero [3] = assay: Inhibitory activity against Herpes Simplex virus type 1 (KOS strain) in a Plaque reduction Assay in vero cells; format: functional, cell-based; conditions: Chlorocebus sabaeus
Vero [4] = assay: Cytotoxicity in Vero cell line; format: functional; conditions: Chlorocebus sabaeus

With `O=c1[nH]c(=O)n([C@@H]2CO[C@H](CO)O2)cc1/C=C/Br` as the molecule, how does the IC50 (F2002 cell line) read?
The IC50 was 5 µg/mL (≈ 15.7 µM).

And the CC50 [1]?
The CC50 was 30 µg/mL (≈ 94 µM).

What about the IC50 (Vero [2]) of the same molecule?
Its IC50 is greater than 30 µg/mL.

And the IC50 (Vero [3])?
The IC50 was 0.3 µg/mL (≈ 0.94 µM).

And the CC50 (Vero [4])?
Its CC50 is 100 µg/mL (≈ 313 µM).

What does the source list for `O=c1[nH]c(=O)n([C@@H]2CO[C@H](CO)S2)cc1/C=C/Br`?
IC50 (F2002 cell line): > 100 µg/mL; CC50 [1]: 100 µg/mL (≈ 298 µM); IC50 (Vero [2]): > 100 µg/mL; IC50 (Vero [3]): > 100 µg/mL; CC50 (Vero [4]): > 100 µg/mL

Which results are given for `O=c1[nH]c(=O)n([C@H]2CO[C@H](CO)S2)cc1/C=C/Br`?
IC50 (F2002 cell line): > 100 µg/mL; CC50 [1]: > 100 µg/mL; IC50 (Vero [2]): 30 µg/mL (≈ 89.5 µM); IC50 (Vero [3]): > 30 µg/mL; CC50 (Vero [4]): 100 µg/mL (≈ 298 µM)

Which IC50 (F2002 cell line) does the source give for `O=c1[nH]c(=O)n([C@H]2CO[C@@H](CO)O2)cc1/C=C/Br` here?
The IC50 was greater than 100 µg/mL.

What about the CC50 [1] of the same molecule?
Its CC50 is greater than 100 µg/mL.

And the IC50 (Vero [2])?
The IC50 was greater than 30 µg/mL.

What about the IC50 (Vero [3]) of the same molecule?
Its IC50 is greater than 30 µg/mL.

What about the CC50 (Vero [4]) of the same molecule?
The CC50 was 100 µg/mL (≈ 313 µM).

Which IC50 (F2002 cell line) does the source give for `O=c1[nH]c(=O)n([C@@H]2CO[C@@H](CO)O2)cc1/C=C/Br` here?
The IC50 was 25 µg/mL (≈ 78.3 µM).

What about the CC50 [1] of the same molecule?
The CC50 was 100 µg/mL (≈ 313 µM).

What about the IC50 (Vero [2]) of the same molecule?
Its IC50 is greater than 30 µg/mL.

What about the IC50 (Vero [3]) of the same molecule?
Its IC50 is greater than 30 µg/mL.

And the CC50 (Vero [4])?
The CC50 was 100 µg/mL (≈ 313 µM).

Which results are given for `O=c1[nH]c(=O)n([C@H]2CO[C@H](CO)O2)cc1/C=C/Br`?
IC50 (F2002 cell line): > 30 µg/mL; CC50 [1]: 30 µg/mL (≈ 94 µM); IC50 (Vero [2]): > 30 µg/mL; IC50 (Vero [3]): 3.4 µg/mL (≈ 10.7 µM); CC50 (Vero [4]): 100 µg/mL (≈ 313 µM)

With `O=c1[nH]c(=O)n([C@@H]2CO[C@@H](CO)S2)cc1/C=C/Br` as the molecule, how does the IC50 (F2002 cell line) read?
The IC50 was 80 µg/mL (≈ 239 µM).

And the CC50 [1]?
Its CC50 is 100 µg/mL (≈ 298 µM).

And the IC50 (Vero [2])?
The IC50 was greater than 10 µg/mL.

What about the IC50 (Vero [3]) of the same molecule?
Its IC50 is greater than 10 µg/mL.

And the CC50 (Vero [4])?
The CC50 was 30 µg/mL (≈ 89.5 µM).

With `O=c1[nH]c(=O)n([C@H]2CO[C@@H](CO)S2)cc1/C=C/Br` as the molecule, how does the IC50 (F2002 cell line) read?
Its IC50 is greater than 100 µg/mL.

What about the CC50 [1] of the same molecule?
Its CC50 is 100 µg/mL (≈ 298 µM).

And the IC50 (Vero [2])?
The IC50 was 2.9 µg/mL (≈ 8.65 µM).

And the IC50 (Vero [3])?
Its IC50 is greater than 30 µg/mL.

And the CC50 (Vero [4])?
Its CC50 is 100 µg/mL (≈ 298 µM).

For `Nc1nc2c(ncn2COCCO)c(=O)[nH]1` [ACYCLOVIR], which IC50 (Vero [2]) is on record?
The IC50 was 0.5 µg/mL (≈ 2.22 µM).

And the IC50 (Vero [3])?
Its IC50 is 0.1 µg/mL (≈ 0.444 µM).

And the CC50 (Vero [4])?
The CC50 was greater than 10 µg/mL.

Which IC50 (F2002 cell line) does the source give for `Nc1nc2c(ncn2COC(CO)CO)c(=O)[nH]1` [GANCICLOVIR] here?
Its IC50 is 0.1 µg/mL (≈ 0.392 µM).

What about the CC50 [1] of the same molecule?
The CC50 was greater than 100 µg/mL.
